Results on three molecules are retold here after US20250041323A1, “BDNF PRODUCTION PROMOTER” (YAMASA CORPORATION, priority 2022, published 2025).

Assay [1] deals with BDNF mRNA in C2C12 cell-derived myotube cells. Kind of assay: BDNF gene expression promoting effect-1: BDNF mRNA by real-time PCR in C2C12 cell-derived myotube cells. It is filed as cell-based, mouse. As to conditions: 1 mM, 4 hours, corrected to β-actin mRNA, vs control without test substance, Dunnett's test, n=3. As for the experimental part:
Mouse myoblast cell line C2C12 cells (RIKEN BRC, RCB0987) were suspended in a growth medium (DMEM containing 10% FBS and antibiotics), seeded in a 24-well plate, and cultured in an incubator at 37° C. and 5% CO2 until the cell density reached 70-90%. The growth medium was removed and replaced with a differentiation induction medium (DMEM containing 2% horse serum and antibiotics). After culturing it for 6 days while changing the medium once every 2 days, cytidylic acid (CMP) or uridylic acid (UMP) was added to a final concentration of 1 mM and cultured for 4 hours. The medium was removed, and the total RNA was extracted from the cells using NucleoSpin® RNA (TAKARA BIO INC).
Using the total RNA as a template, a reverse transcription reaction solution was prepared using ReverTra Ace® qPCR RT Kit (TOYOBO). The reverse transcription reaction solution, GoTaq qPCR Master Mix (Promega), and a real-time PCR device Thermal Cycler Dice® Real Time System (TAKARA BIO INC) were used to measure amounts of mRNAs of BDNF and β-actin as an internal standard. Analysis was performed by relative quantification, and the amount of the mRNA was corrected using the amount of mRNA of β-actin as an endogenous control.
The threshold of statistical significance was set at 5%. In addition, unless otherwise specified, including the following Examples, each sample was examined at n=3.

Assay [2] deals with BDNF mRNA in PC-12 cells. Kind of assay: BDNF gene expression promoting effect-2: BDNF mRNA by real-time PCR in PC-12 cells (uridylic acid). The assay is classed as cell-based, rat. As to conditions: 500 µM, 4 hours, n=3. As for the experimental part: Rat adrenal medulla brown tumor-derived cells (PC-12 cells, JCRB0733), used as nervous system model cells, were suspended in DMEM containing 20% FBS and antibiotics, seeded on a collagen-coated 24-well plate at a density of 2.4×10^5 cells/well, and cultured in an incubator at 37° C. and 5% CO2 for 18 hours. Uridylic acid (UMP) was added to a final concentration of 500 µM, and cultured for 4 hours.
Subsequently, mRNA was extracted and an amount of mRNA of BDNF was evaluated by reverse transcription and real-time PCR analysis in the same procedure as that of Example 1.

Assay [3] has as its system BDNF protein in PC-12 cells. Kind of assay: BDNF protein by Rat BDNF ELISA in PC-12 cell lysate. It is filed as cell-based. The settings on record: 200 µM, 24 hours, t-test vs control, n=3. The protocol:
PC-12 cells were suspended in DMEM containing 20% FBS and antibiotics, seeded on a collagen-coated 24-well plate at a density of 2.4×10^5 cells/well, and cultured in an incubator at 37° C. and 5% CO2 for 18 hours. Uridine was added to a final concentration of 200 µM, and cultured for 24 hours. The medium was removed by suction, and 100 μl of RIPA buffer (50 mM Tris-HCl (pH 7.6), 150 mM NaCl, 1% NP-40, 0.5% sodium deoxycholate, 1% SDS) containing 1% protease inhibitor cocktail (nacalai tesque) was added, and the cells were disrupted by pipetting and ultrasonication. The amount of BDNF in the cell lysate was measured using a Rat BDNF ELISA Kit (RayBiotech). The amount of protein in the cell lysate was measured using a Micro BCA™ Protein Assay Kit (Thermo Fisher Scientific), and the amount of BDNF per total protein mass was calculated. […] The threshold for statistical significance was set at 5%.

In assay [4] the test system is BDNF mRNA in PC-12 cells. The assay can be described thus: BDNF gene expression promoting effect-3: BDNF mRNA by real-time PCR in PC-12 cells (uridine). It is filed as cell-based, rat. As to conditions: 200 μM, 1 hour, n=3. As for the experimental part: PC-12 cells were suspended in DMEM containing 5% FBS (fetal bovine serum), 10% horse serum, and antibiotics (100 units/ml of penicillin, 100 μg/ml of streptomycin), seeded on a collagen-coated 24-well plate at a density of 2.4×10^5 cells/well, and cultured in an incubator at 37° C. and 5% CO2 for 18 hours. Uridine, a precursor of uridylic acid, was added to a final concentration of 200 μM, and cultured for 1 hour. Subsequently, mRNA was extracted, and the amount of mRNA of BDNF was evaluated by reverse transcription and real-time PCR analysis in the same procedure as that of Example 1.

As to `O=c1ccn([C@@H]2O[C@H](COP(=O)(O)O)[C@@H](O)[C@H]2O)c(=O)[nH]1` [uridylic acid], the “amount of mRNA of BDNF” value (in assay [1]; in the assay on BDNF mRNA in PC-12 cells [2]) was “significantly increased” in each case.
For the molecule `O=c1ccn([C@@H]2O[C@H](CO)[C@@H](O)[C@H]2O)c(=O)[nH]1` [uridine], the “amount of BDNF per total protein mass” value in assay [3] is recorded as “significantly increased”. For the same molecule, the “amount of mRNA of BDNF” value with BDNF mRNA in PC-12 cells [4] is listed as “significantly increased”.
For the molecule `Nc1ccn([C@@H]2O[C@H](COP(=O)(O)O)[C@@H](O)[C@H]2O)c(=O)n1` [cytidylic acid], the “amount of mRNA of BDNF” value in assay [1] was “significantly increased”.
